Experimental data from patent US6613961B1, “Plants capable of metabolizing drugs and use thereof” (priority 1998, dated 2003).

What was measured:
[1] = tested on: leaves of potato individuals expressing three types of P450; assay: 7-ethoxycoumarin O-deethylation activity in leaves of kanamycin-resistant individuals; format: in vivo, Solanum tuberosum cv. MayQueen; conditions: leaves cultured with 7-ethoxycoumarin for 3 days
Experimental: Leaves of the kanamycin-resistant individuals (0.1 g) were cultured in 5 ml of a liquid medium containing 2% sucrose with 100 μl of 20 mM 7-ethoxycoumarin for 3 days. Then, the leaves were crushed in 500 μl of 0.1 M potassium phosphate buffer (pH 7.4), and chloroform was added to the supernatant and mixed. To the chloroform layer, 0.01 N NaOH/0.1 M NaCl was added, and measurement was performed at excitation wavelength of 366 nm and at emission of 452 nm with the Hitachi fluorometer. […] Each of CYP1A1-expressing individual S1965, and CYP2B6-expressing individual S1972 was selected in the same manner.

[2] = tested on: microsomal fraction of Control plants; assay: 7-ethoxyresorufin O-deethylation activity using a microsomal fraction; format: biochemical, Solanum tuberosum cv. MayQueen
Experimental: (§1) A reaction was initiated by adding 7-ethoxyresorufin to the concentration of 10 μM to a reaction solution containing 0.1 M potassium phosphate buffer (pH 7.4), 3 mM NADPH, and 1 mg/ml microsomal fractions at the final concentrations. The mixture was incubated at 37° C. for 30 min, ice-cooled acetone was added thereto, and allowed to stand on ice for 10 min. The supernatant was measured using the fluorometer (excitation wavelength of 550 nm, and emission of 586 nm).
(§2) Inhibition of activity by addition of carbon monoxide and absence of NADPH indicated P450-dependency. On the other hand, an increased activity was not observed in S1972 or S1974. […] In the table, “EROD activity” of (a) indicates 7-ethoxyresorufin O-deethylase activity (pmol/min/mg of protein) and means±standard deviations in three independent experiments. In (b), the values indicate the activities in the presence of carbon monoxide. In (c), the values indicate the activities in the absence of NADPH.

[3] = target: T1, microsomal fraction of S1974 (human CYP2C19) (Homo sapiens, UniProt P33261); assay: as above; format: biochemical
T1 construct: expressed in transfected cells; host or cells: transgenic potato (Solanum tuberosum cv. MayQueen) line S1974, plasmid pUHC19, microsomal fraction
Experimental: as §1, §2

[4] = target: T2, microsomal fraction of S1972 (human CYP2B6) (Homo sapiens, UniProt P20813); assay: as above; format: biochemical
T2 construct: expressed in transfected cells; host or cells: transgenic potato (Solanum tuberosum cv. MayQueen) line S1972, plasmid pUHB6, microsomal fraction
Experimental: as §1, §2

[5] = target: T3, microsomal fraction of T1977 (human CYP1A1, CYP2B6, CYP2C19) (Homo sapiens, UniProt P04798); assay: as above; format: biochemical
T3 construct: expressed in transfected cells; host or cells: transgenic potato (Solanum tuberosum cv. MayQueen) line T1977, plasmid pIKBAC, microsomal fraction
T3 sequence (P04798 1-512): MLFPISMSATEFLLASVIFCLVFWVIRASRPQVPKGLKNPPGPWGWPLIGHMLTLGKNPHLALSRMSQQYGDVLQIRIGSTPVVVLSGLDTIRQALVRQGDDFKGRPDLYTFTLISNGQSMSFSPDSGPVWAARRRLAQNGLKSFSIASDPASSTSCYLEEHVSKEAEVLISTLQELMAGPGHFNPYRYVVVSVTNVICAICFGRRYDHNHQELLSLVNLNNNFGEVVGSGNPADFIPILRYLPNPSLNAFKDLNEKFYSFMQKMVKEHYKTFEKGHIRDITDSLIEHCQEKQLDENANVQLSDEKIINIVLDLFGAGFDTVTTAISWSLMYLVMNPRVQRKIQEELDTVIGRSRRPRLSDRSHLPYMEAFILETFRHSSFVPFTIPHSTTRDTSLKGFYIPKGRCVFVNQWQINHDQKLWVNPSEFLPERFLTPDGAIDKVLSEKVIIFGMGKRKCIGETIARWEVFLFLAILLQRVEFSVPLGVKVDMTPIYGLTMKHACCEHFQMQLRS
Experimental: as §1, §2

[6] = target: T4, microsomal fraction of S1965 (human CYP1A1) (Homo sapiens, UniProt P04798); assay: as above; format: biochemical
T4 construct: expressed in transfected cells; host or cells: transgenic potato (Solanum tuberosum cv. MayQueen) line S1965, plasmid pUHA1, microsomal fraction
T4 sequence (P04798 1-512): T3 sequence (P04798 1-512)
Experimental: as §1, §2

S1974 (human CYP2C19) = assay: Herbicide tolerance assay for transformants; format: in vivo, Solanum tuberosum cv. MayQueen; conditions: acetochlor 20 μmol, atrazine 1.2 μmol, metolachlor 30 μmol dispersed
Text: Then, herbicides were dispersed.

non-transformed MayQueen = assay: Assay for herbicide resistance, non-transformed potato; format: in vivo; parameters: key: 1: alomost dead; 2: severely inhibited growth; 3: slightly inferior growth; 4: the same growth as that when herbicide was not dispersed; conditions: 14 days after dispersal
Text: 4, the same growth as that when herbicide was not dispersed.

Human CYP2B6 = target: T5, Human CYP2B6 (Homo sapiens, UniProt P20813); assay: Metabolism of herbicides in microsomes of recombinant yeast expressing human P450
T5 sequence (P20813 1-491): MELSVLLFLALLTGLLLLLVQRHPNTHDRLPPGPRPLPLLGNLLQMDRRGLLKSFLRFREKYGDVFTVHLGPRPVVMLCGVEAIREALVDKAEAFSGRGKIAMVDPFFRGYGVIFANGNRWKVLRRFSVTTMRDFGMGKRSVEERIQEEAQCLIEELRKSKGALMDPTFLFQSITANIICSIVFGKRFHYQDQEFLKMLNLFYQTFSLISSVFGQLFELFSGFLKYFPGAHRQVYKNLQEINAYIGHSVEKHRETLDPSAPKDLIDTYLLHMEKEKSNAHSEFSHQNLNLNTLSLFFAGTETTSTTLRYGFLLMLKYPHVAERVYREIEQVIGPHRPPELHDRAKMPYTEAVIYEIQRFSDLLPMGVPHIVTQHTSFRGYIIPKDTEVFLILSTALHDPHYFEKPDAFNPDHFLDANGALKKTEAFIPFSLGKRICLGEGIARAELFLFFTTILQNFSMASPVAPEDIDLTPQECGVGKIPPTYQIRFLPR
Experimental: The reaction was carried out in a range of temperature suitable for an organism from which a p450 molecular species is derived (for example, 37° C. for human P450), by mixing with air while vigorously shaking, within a period during which an enzyme is not inactivated (for example, for 10 to 60 min).
From the height of the peak, a metabolized amount can be obtained.
To 0.1 M potassium phosphate buffer (pH 7.4), the microsomal fraction prepared from each of yeast strains respectively expressing one of 11 human P450 molecular species (obtained from Sumitomo Chemical) was added so that the amount of the p450 would be 25 pmol. Furthermore, 0.5 mM NADPH, 5 mM glucose 6 phosphate, 1 U/ml glucose 6 phosphate dehydrogenase, and 0.1 mM each of the following herbicides (those available in the market were used) were added at the final concentrations thereto to make the total volume of 100 μl. The reaction mixture was shaken at 37° C. for 60 min, and an organic solvent was added thereto for the extraction. The extract was applied to the high performance liquid chromatography, and the metabolite was measured.

[7] = tested on: seeds of Nipponbare into which the gene was not introduced; assay: Germination assay for herbicide resistance, non-introduced rice seeds; format: in vivo, rice (Nipponbare); conditions: […] metolachlor, […] alachlor, 15 μM triflurarin; after about 4 to 7 days
Human CYP1A1 = target: T6, Human CYP1A1 (Homo sapiens, UniProt P04798); assay: Metabolism of herbicides in microsomes of recombinant yeast expressing human P450; format: in vitro ADME
T6 construct: purchased Sumitomo Chemical; host or cells: recombinant yeast, microsomal fraction
T6 sequence (P04798 1-512): T3 sequence (P04798 1-512)

Human CYP2C9 = Human CYP2C9 (Homo sapiens, UniProt P11712); assay: Herbicide metabolism by human P450 molecular species (microsomal fraction); format: in vitro ADME
[8] = 10 μM 7-ethoxyresorufin, means±standard deviations in three independent experiments

T1 sequence (P33261 whole entry): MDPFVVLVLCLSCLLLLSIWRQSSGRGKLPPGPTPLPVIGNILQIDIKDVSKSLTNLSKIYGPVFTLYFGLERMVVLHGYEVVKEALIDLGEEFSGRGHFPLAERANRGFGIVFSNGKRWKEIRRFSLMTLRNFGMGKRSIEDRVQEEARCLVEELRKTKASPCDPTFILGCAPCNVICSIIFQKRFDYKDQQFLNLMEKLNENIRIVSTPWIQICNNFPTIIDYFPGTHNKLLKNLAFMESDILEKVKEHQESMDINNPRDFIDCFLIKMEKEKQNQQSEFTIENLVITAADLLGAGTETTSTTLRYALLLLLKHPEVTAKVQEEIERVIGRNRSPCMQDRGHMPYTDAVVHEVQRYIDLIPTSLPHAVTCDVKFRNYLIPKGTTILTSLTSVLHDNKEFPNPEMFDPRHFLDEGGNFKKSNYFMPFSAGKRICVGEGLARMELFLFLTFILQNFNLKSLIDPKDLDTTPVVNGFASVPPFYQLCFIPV
Chain of Human CYP2C9 (P11712 whole entry): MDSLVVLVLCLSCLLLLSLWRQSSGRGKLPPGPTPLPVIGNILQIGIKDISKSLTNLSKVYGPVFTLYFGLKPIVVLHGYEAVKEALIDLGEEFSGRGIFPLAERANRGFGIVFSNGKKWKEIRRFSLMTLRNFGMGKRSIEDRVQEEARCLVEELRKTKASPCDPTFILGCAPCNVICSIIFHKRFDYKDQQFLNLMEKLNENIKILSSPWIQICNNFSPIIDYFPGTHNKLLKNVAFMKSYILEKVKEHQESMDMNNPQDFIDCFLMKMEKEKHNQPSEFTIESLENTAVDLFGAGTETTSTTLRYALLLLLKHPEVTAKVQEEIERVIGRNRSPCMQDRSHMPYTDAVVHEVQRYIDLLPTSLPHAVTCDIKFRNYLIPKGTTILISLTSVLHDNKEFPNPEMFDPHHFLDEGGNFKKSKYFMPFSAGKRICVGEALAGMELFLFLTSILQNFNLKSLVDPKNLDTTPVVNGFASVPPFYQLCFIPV

CCOc1ccc2ccc(=O)oc2c1 [7-ethoxycoumarin]
7-ethoxycoumarin O-deethylation activity ([1]; individual T1977): higher activity than the control
7-ethoxycoumarin O-deethylation activity ([1]; individual T1979): higher activity than the control

CCOc1ccc2nc3ccc(=O)cc-3oc2c1 [7-ethoxyresorufin]
-NADPH (Inhibition rate) [2]: 82%
CO (Inhibition rate) [2]: 45%
EROD activity [2, 8]: 0.11 ± 0.01 pmol/min/mg of protein
EROD activity in the absence of NADPH ([2]; -NADPH): 0.02 pmol/min/mg of protein
EROD activity in the presence of carbon monoxide ([2]; CO): 0.06 pmol/min/mg of protein
increased 7-ethoxyresorufin O-deethylation activity [3]: not observed
EROD activity [3, 8]: 0.14 ± 0.03 pmol/min/mg of protein
increased 7-ethoxyresorufin O-deethylation activity [4]: not observed
EROD activity [4, 8]: 0.12 ± 0.03 pmol/min/mg of protein
7-ethoxyresorufin O-deethylation activity, times higher than the controls [5]: about 27 times
-NADPH (Inhibition rate) [5]: 99%
CO (Inhibition rate) [5]: 76%
EROD activity [5, 8]: 2.92 ± 0.72 pmol/min/mg of protein
EROD activity in the absence of NADPH ([5]; -NADPH): 0.02 pmol/min/mg of protein
EROD activity in the presence of carbon monoxide ([5]; CO): 0.69 pmol/min/mg of protein
7-ethoxyresorufin O-deethylation activity, times higher than the controls [6]: ~53 times
-NADPH (Inhibition rate) [6]: 99%
CO (Inhibition rate) [6]: 77%
EROD activity [6, 8]: 5.78 ± 0.51 pmol/min/mg of protein
EROD activity in the absence of NADPH ([6]; -NADPH): 0.06 pmol/min/mg of protein
EROD activity in the presence of carbon monoxide ([6]; CO): 1.33 pmol/min/mg of protein

CCOCN(C(=O)CCl)c1c(C)cccc1CC [acetochlor]
resistance of the transformant to the herbicide (S1974 (human CYP2C19)): strong resistance
Resistance to herbicide (non-transformed MayQueen; Acetochlor 5 μmol/pot): 2
Resistance to herbicide (non-transformed MayQueen; Acetochlor 10 μmol/pot): 2
Resistance to herbicide (non-transformed MayQueen; Acetochlor 15 μmol/pot): 1

CCc1cccc(CC)c1N(COC)C(=O)CCl [alachlor]
metabolic reaction confirmed (Human CYP2B6): O-deethylation, O-demethylation
Germination of seeds [7]: inhibited

CCNc1nc(Cl)nc(NC(C)C)n1 [atrazine]
resistance of the transformant to the herbicide (S1974 (human CYP2C19)): strong resistance
metabolic reaction confirmed (Human CYP1A1): N-deethylation, N-deisopropylation

CCS(=O)(=O)Oc1ccc2c(c1)C(C)(C)CO2 [benfuresate]
metabolic reaction confirmed (Human CYP2B6): O-deethylation, hydroxylation

Cc1ccc(NC(=O)N(C)C)cc1Cl [chlorotoluron]
metabolic reaction confirmed (Human CYP1A1): N-demethylation, ring hydroxylation

CCOC1Oc2ccc(OS(C)(=O)=O)cc2C1(C)C (stereo not shown) [ethofumesate]
metabolic reaction confirmed (Human CYP2B6): O-deethylation, hydroxylation

COc1cc(OC)nc(NC(=O)NS(=O)(=O)c2c(Cl)nc3ccccn23)n1 [imazosulfuron]
metabolic reaction confirmed (Human CYP2C9): ring hydroxylation

CNC(=O)N(C)c1nc2ccccc2s1 [methabenzthiazuron]
metabolic reaction confirmed (Human CYP1A1): N-demethylation, ring hydroxylation

CNc1cnn(-c2cccc(C(F)(F)F)c2)c(=O)c1Cl [norflurazon]
metabolic reaction confirmed (Human CYP1A1): N-demethylation

CO/N=C(/C)c1cccc(Oc2nc(OC)cc(OC)n2)c1C(=O)OC [pyriminobac-methyl]
metabolic reaction confirmed (Human CYP1A1): hydroxylation

CCCN(CCC)c1c([N+](=O)[O-])cc(C(F)(F)F)cc1[N+](=O)[O-] [triflurarin]
metabolic reaction confirmed (Human CYP2B6): O-demethylation
Germination of seeds [7]: inhibited
